From patent US20220380318A1, “SUBSTITUTED SULFONYL AMIDES FOR CONTROLLING ANIMAL PESTS” (Bayer Aktiengesellschaft, priority 2019, published 2022)

Legend:
Type in all cases: in vivo
Meloidogyne incognita [1] = test: Meloidogyne incognita test (MELGIN), comparison with prior art; conditions: 504 h, after 21 days
Protocol: (§1) Meloidogyne incognita Test (MELGIN) Solvent: 7 parts by weight of dimethylformamide Emulsifier: 2.5 parts by weight of alkylaryl polyglycol ether To produce a suitable active ingredient formulation, 1 part by weight of active ingredient is mixed with the specified amounts of solvent and emulsifier, and the concentrate is diluted with water to the desired concentration, it being necessary to take account of the volume of soil which is drenched. It should be ensured that a concentration of 20 ppm of emulsifier in the soil is not exceeded. To produce further test concentrations, water is used for dilution. Pots filled with soil (loamy sand) are watered with the active ingredient solution. An egg/larvae suspension of the southern root-knot nematode (Meloidogyne incognita) is added, lettuce seeds are scattered over the surface of the soil, and they are covered over with quartz sand. The lettuce seeds germinate and the plants develop. The galls develop on the roots. After 21 days, the nematicidal efficacy in % is determined by the formation of galls. 100% means that no galls have been found; 0% means that the number of galls on the treated plants corresponds to the untreated control.

Meloidogyne incognita [2] = test: Meloidogyne incognita test (soil drench, gall formation after 21 days); conditions: 504 h, lettuce, read-out: nematicidal efficacy in % (formation of galls); for pest or weed control at 0.125 ppm: application rate 0.125 ppm; for pest or weed control at 0.25 ppm: application rate 0.25 ppm; for pest or weed control at 1 ppm: application rate 1 ppm
Protocol: as §1, with “Test” for “Test (MELGIN)”

Heterodera pallida = Heterodera pallida - soil mixing test (HETDPA); conditions: Globodera pallida, 1008 h, cysts on potato roots after six weeks, Abbott formula, read-out: % Efficacy
Protocol: Heterodera pallida-Soil Mixing Test ([…]) Solvent: 4 parts by weight of acetone Emulsifier: 1 part by weight of alkylaryl polyglycol ether To produce a suitable preparation of active ingredient, 1 part by weight of active ingredient is mixed with the stated amounts of solvent and emulsifier, and the concentrate is diluted with water to the desired concentration. This active ingredient formulation is mixed with soil (loamy sand). The stated concentration refers to the amount of active ingredient per volume unit of soil (ppm=mg/l). 40 cysts of the white potato nematode (Heterodera pallida, 250-275 larvae/cysts) are introduced into 500 ml of this active ingredient soil and mixed. The mixture is introduced into pots and planted in each case with a one-week-old potato seedling (Solanum tuberosum). After six weeks, the potato roots are checked for cysts and the average number per pot is calculated as efficacy by the Abbott formula: [formula] B=treated plants K=untreated control plants

Meloidogyne incognita [3] = test: Meloidogyne incognita test (sand, acetone formulation, gall formation after 14 days); conditions: 336 h, application rate 4 ppm, lettuce in sand, read-out: nematicidal efficacy in % (formation of galls)
Protocol: Meloidouyne incognita Test Solvent: 125.0 parts by weight of acetone To produce an appropriate active ingredient formulation, 1 part by weight of active ingredient is mixed with the stated amount of solvent and the concentrate is diluted to the desired concentration with water. Vessels are filled with sand, active ingredient solution, an egg/larvae suspension of the southern root-knot nematode (Meloidogyne incognita) and lettuce seeds. The lettuce seeds germinate and the plants develop. The galls develop on the roots. After 14 days, the nematicidal efficacy in % is determined by the formation of galls. 100% means that no galls were found; 0% means that the number of galls on the treated plants corresponds to the untreated control.

Compound	pest or weed control at 0.125 ppm (Meloidogyne incognita [2]) [%]	pest or weed control at 0.25 ppm (Meloidogyne incognita [2]) [%]	pest or weed control at 1 ppm (Meloidogyne incognita [2]) [%]	pest or weed control at 4 ppm (Meloidogyne incognita [3]) [%]	also measured
COc1ccc(Cl)c(S(=O)(=O)NC(=O)c2nc(Cl)n([C@H]3C[C@@H]3C(F)(F)F)c2Br)c1 (racemic) [I-01]	90	97	100	100	Emax at 0.015625 ppm (Meloidogyne incognita [1]; read-out: % Efficacy): 58.3%; nematicidal efficacy (% gall reduction) at 0.03125 ppm (Meloidogyne incognita [1]): 95%; Emax at 0.25 ppm (Heterodera pallida): 75%; Emax at 0.5 ppm (Heterodera pallida): 90%; Emax at 1 ppm (Heterodera pallida): 100%
O=C(NS(=O)(=O)c1cc(Cl)ccc1Cl)c1nc(Cl)n([C@H]2C[C@@H]2C(F)(F)F)c1Br (racemic) [I-02]	90	90	100	100	
Cc1ccccc1S(=O)(=O)NC(=O)c1nc(Cl)n([C@H]2C[C@@H]2C(F)(F)F)c1Br (racemic) [I-03]	90	100	100	100	
CCOc1ccc(Cl)c(S(=O)(=O)NC(=O)c2nc(Cl)n([C@H]3C[C@@H]3C(F)(F)F)c2Br)c1 (racemic) [I-04]	90	100	100	100	nematicidal efficacy (% gall reduction) at 0.03125 ppm (Meloidogyne incognita [1]): 97%
COc1ccc(Br)c(S(=O)(=O)NC(=O)c2nc(Cl)n([C@H]3C[C@@H]3C(F)(F)F)c2Br)c1 (racemic) [I-05]	100	100	100	100	
COc1ccc(Cl)c(S(=O)(=O)NC(=O)c2nc(Br)n([C@H]3C[C@@H]3C(F)(F)F)c2Br)c1 (racemic) [I-06]	100	100	100	100	Emax at 0.015625 ppm (Meloidogyne incognita [1]; read-out: % Efficacy): 65%; nematicidal efficacy (% gall reduction) at 0.03125 ppm (Meloidogyne incognita [1]): 92.5%
COc1ccc(Br)c(S(=O)(=O)NC(=O)c2nc(Br)n([C@H]3C[C@@H]3C(F)(F)F)c2Br)c1 (racemic) [I-07]	100	100	100	100	Emax at 0.03125 ppm (Meloidogyne incognita [1]; read-out: % Efficacy): 90%; nematicidal efficacy (% gall reduction) at 0.0625 ppm (Meloidogyne incognita [1]; 0.0625 ppm): 100%; nematicidal efficacy (% gall reduction) at 0.125 ppm (Meloidogyne incognita [1]): 100%
Cc1ccccc1S(=O)(=O)NC(=O)c1nc(Br)n([C@H]2C[C@@H]2C(F)(F)F)c1Br (racemic) [I-08]		100	100	100	
CCOc1ccc(Cl)c(S(=O)(=O)NC(=O)c2nc(Br)n([C@H]3C[C@@H]3C(F)(F)F)c2Br)c1 (racemic) [I-09]	90	100	100	100	
O=C(NS(=O)(=O)c1cc(OCC(F)F)ccc1Cl)c1nc(Br)n([C@@H]2C[C@H]2C(F)(F)F)c1Br (racemic) [I-10]	100			100	
O=C(NS(=O)(=O)c1cc(OCC(F)F)ccc1Cl)c1nc(Cl)n([C@@H]2C[C@H]2C(F)(F)F)c1Br (racemic) [I-11]	98			100	
COc1ccc(Cl)c(S(=O)(=O)NC(=O)c2nc(Br)n([C@H]3C[C@@H]3C(F)(F)F)c2Cl)c1 (racemic) [I-12]	100			100	nematicidal efficacy (% gall reduction) at 0.125 ppm (Meloidogyne incognita [1]): 100%
O=C(NS(=O)(=O)c1ccccc1Cl)c1nc(Br)n([C@@H]2C[C@H]2C(F)(F)F)c1Cl (racemic) [I-13]			80	100	nematicidal efficacy (% gall reduction) at 0.5 ppm (Meloidogyne incognita [1]): 70%
O=C(NS(=O)(=O)c1ccccc1Cl)c1nc(Br)n(CCC(F)(F)F)c1Cl [Ex. I-440, reference compound]					nematicidal efficacy (% gall reduction) at 0.125 ppm (Meloidogyne incognita [1]): 0%; nematicidal efficacy (% gall reduction) at 0.5 ppm (Meloidogyne incognita [1]): 0%
CCOc1ccc(Cl)c(S(=O)(=O)NC(=O)c2nc(Cl)n([C@@H]3C[C@H]3C(F)(F)F)c2Cl)c1 [Ex. I-459, reference compound]					nematicidal efficacy (% gall reduction) at 0.03125 ppm (Meloidogyne incognita [1]): 10%
COc1ccc(Br)c(S(=O)(=O)NC(=O)c2nc(Cl)n([C@@H]3C[C@H]3C(F)(F)F)c2Cl)c1 [Ex. I-465, reference compound]					Emax at 0.03125 ppm (Meloidogyne incognita [1]; read-out: % Efficacy): 0%; Emax at 0.0625 ppm (Meloidogyne incognita [1]; 0.0625 ppm, read-out: % Efficacy): 25%; nematicidal efficacy (% gall reduction) at 0.125 ppm (Meloidogyne incognita [1]): 95%
COc1ccc(Cl)c(S(=O)(=O)NC(=O)c2nc(Cl)n([C@@H]3C[C@H]3C(F)(F)F)c2Cl)c1 [Ex. I-470, reference compound]					Emax at 0.015625 ppm (Meloidogyne incognita [1]; read-out: % Efficacy): 0%; nematicidal efficacy (% gall reduction) at 0.03125 ppm (Meloidogyne incognita [1]): 48%; Emax at 0.25 ppm (Heterodera pallida): 0%; Emax at 0.5 ppm (Heterodera pallida): 0%; Emax at 1 ppm (Heterodera pallida): 70%
